# Assay results taken from US8946266B2, “Substituted triazole and imidazole derivatives as gamma secretase modulators” (Janssen Pharmaceuticals, Inc., priority 2009, dated 2015).
# Experiments:
# Aβ42 = test: In vivo efficacy, Method 2: brain soluble Aβ42 lowering 4 h after a single oral dose, ELISA (Table 4b); set-up: species or system mouse; details: dose 30 mg/kg oral dosing
# Procedure, shortened: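 Overnight-fasted non-transgenic rodents got a single oral dose of 30 mg/kg in 20% Captisol or 20% hydroxypropyl β-cyclodextrin and were killed 4 h later. Right-hemisphere soluble fraction (0.4% DEA/50 mM NaCl extract, neutralised) was assayed for Aβ42 by sandwich ELISA with fluorogenic read-out, compared with untreated animals.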
# Aβtotal = test: In vivo efficacy, Method 2: brain soluble Aβtotal lowering 4 h after a single oral dose, ELISA (Table 4b); set-up: species or system mouse; details: dose 30 mg/kg oral dosing
# Procedure, shortened: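 Non-transgenic mice or rats, fasted overnight, received a single oral dose (30 mg/kg) in 20% Captisol or 20% hydroxypropyl β-cyclodextrin, or vehicle, and were sacrificed after 4 h. Right brain hemisphere was extracted in 0.4% DEA/50 mM NaCl, and soluble Aβtotal in the high-speed supernatant was measured by sandwich ELISA (JRF/rAβ/2 capture, biotinylated 4G8 detection, fluorogenic read-out).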
Compound,melting point [°C],Aβ42 (% Ctrl) _Mean (Aβ42) [% Ctrl],Aβtotal (% Ctrl) _Mean (Aβtotal) [% Ctrl]
COc1cc(-c2nc(-c3ccccc3)n(C)n2)ccc1-n1cnc(C)c1 [Compound 9],115.8,–,–
COc1cc(-c2nc(Nc3ccc(F)cc3C(F)(F)F)n(C)n2)ccc1-n1cnc(C)c1 [Compound 15],–,37,−5
COc1cc(-c2nc(Nc3cccc(C(F)(F)F)c3)n(C)n2)ccc1-n1cnc(C)c1 [Compound 146],–,17,2
